Test results as given in ChEMBL document CHEMBL1201862, “PubChem BioAssay data set” (2004).
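Five compound concentrations were applied to cells in 96-well plates for 48 hours; endpoints were derived by simple linear interpolation of the resulting dose-response curve. GI50: concentration for 50% inhibition of growth.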 Activity calls are given as the source filed them. No stated cut-off is given here; in the data, active = GI50 up to about 1.1 µM and inactive = higher.

Columns and labels:
Experiment in all cases: DTP human tumour cell line panel, 48 h
DU-145 = tested on: DU-145
HCC 2998 = tested on: HCC 2998
HCT-15 = tested on: HCT-15
HL-60 = tested on: HL-60
HOP-62 = tested on: HOP-62
IGROV-1 = tested on: IGROV-1
MCF7 = tested on: MCF7
MDA-MB-435 = tested on: MDA-MB-435
MOLT-4 = tested on: MOLT-4
NCI-H460 = tested on: NCI-H460
OVCAR-5 = tested on: OVCAR-5
SF-295 = tested on: SF-295
SF-539 = tested on: SF-539
SK-MEL-28 = tested on: SK-MEL-28
SNB-75 = tested on: SNB-75
T47D = tested on: T47D
U-251 = tested on: U-251
UACC-62 = tested on: UACC-62

Row | SMILES | GI50 (DU-145) | GI50 (HCC 2998) | GI50 (HCT-15) [µM] | GI50 (HL-60) | GI50 (HOP-62) | GI50 (IGROV-1) | GI50 (MCF7) | GI50 (MDA-MB-435) | GI50 (MOLT-4) | GI50 (NCI-H460) | GI50 (OVCAR-5) | GI50 (SF-295) | GI50 (SF-539) | GI50 (SK-MEL-28) | GI50 (SNB-75) | GI50 (T47D) | GI50 (U-251) | GI50 (UACC-62)
1 | Cn1c(=O)c2c(nc3sc4c(n32)C(=O)c2c(O)ccc(O)c2C4=O)n(C)c1=O | 11.2 µM (inactive) | 4.11 µM (inactive) | 1.73 | 0.51 µM (active) | 12.8 µM (inactive) | 8.02 µM (inactive) | 0.955 µM (active) | 4.78 µM (inactive) | 1.31 µM (inactive) | 20.5 µM (inactive) | 28 µM (inactive) | 31.2 µM (inactive) | 3.44 µM (inactive) | 6.05 µM (inactive) | 2.99 µM (inactive) | 2.43 µM (inactive) | 14.6 µM (inactive) | 4.73 µM (inactive)
2 | O=C1C(Cl)=C(N2C(=O)CCCC2=O)C(=O)c2ccccc21 | 16.6 µM (inactive) | 16.6 µM (inactive) | 11.6 | 1.7 µM (inactive) | > 100 µM (inactive) | 15.8 µM (inactive) | 16.8 µM (inactive) | 21.8 µM (inactive) | 17.9 µM (inactive) | 14.6 µM (inactive) | 18 µM (inactive) | 82.2 µM (inactive) | 18.5 µM (inactive) | 13.9 µM (inactive) | 16.4 µM (inactive) | 22.9 µM (inactive) | 26 µM (inactive) | 19.3 µM (inactive)
3 | CC(C)(Cl)C(Br)CC/C(CBr)=C(/Cl)CCl.CC(C)(Cl)C(Br)CC/C(CBr)=C(\Cl)CCl (stereo not drawn) | > 10 µM (inactive) | 2.86 µM (inactive) | 2.29 | 0.94 µM (active) | 3.92 µM (inactive) | 0.782 µM (active) | 2.13 µM (inactive) | 1.79 µM (inactive) | 0.417 µM (active) | 6.38 µM (inactive) | 5.13 µM (inactive) | > 10 µM (inactive) | 2.07 µM (inactive) | 2.11 µM (inactive) | 2.74 µM (inactive) | 2.32 µM (inactive) | 1.73 µM (inactive) | 1.5 µM (inactive)
4 | O=C1NCC2(CCNCC2)N1 | > 100 µM (inactive) | > 100 µM (inactive) | > 100 | > 100 µM (inactive) | > 100 µM (inactive) | > 100 µM (inactive) | > 100 µM (inactive) | > 100 µM (inactive) | > 100 µM (inactive) | > 100 µM (inactive) | > 100 µM (inactive) | > 100 µM (inactive) | > 100 µM (inactive) | > 100 µM (inactive) | > 100 µM (inactive) | > 100 µM (inactive) | > 100 µM (inactive) | > 100 µM (inactive)
5 | COc1cc2c(cc1OCCCCCCCCN1C(=O)c3cccc4cccc(c34)C1=O)N=C[C@@H]1CCCN1C2=O | 50.2 µM (inactive) | 14.2 µM (inactive) | 12.8 | 13.8 µM (inactive) | 42 µM (inactive) | 3.11 µM (inactive) | 3.71 µM (inactive) | 14.3 µM (inactive) | 3.48 µM (inactive) | 20.7 µM (inactive) | 20.4 µM (inactive) | 15.6 µM (inactive) | 3.45 µM (inactive) | 17.9 µM (inactive) | 1.11 µM (active) | 73.6 µM (inactive) | 6.62 µM (inactive) | 13.5 µM (inactive)
6 | O=C(/C=C1\C[C@H]2C=Nc3ccccc3C(=O)N2C1)NCCCCCNC(=O)/C=C1\C[C@H]2C=Nc3ccccc3C(=O)N2C1 | 13.5 µM (inactive) | 18.5 µM (inactive) | 3.44 | 2.4 µM (inactive) | 14.2 µM (inactive) | 11 µM (inactive) | 6.97 µM (inactive) | 4.7 µM (inactive) | 1.7 µM (inactive) | 18.3 µM (inactive) | 18.8 µM (inactive) | 18.3 µM (inactive) | 19.1 µM (inactive) | 12.1 µM (inactive) | 13.6 µM (inactive) | 2.53 µM (inactive) | 3.03 µM (inactive) | 14.7 µM (inactive)
